# Measurements: US9682131B2, “Compositions and method for utilization of thioretinamide in therapy of degenerative diseases of aging” (priority 2011, dated 2017)
# Key:
# transplanted neoplasms = conditions: cited from earlier work; for growth of transplanted neoplasms in animals: U.S. Pat. No. 4,383,994
# retinal cells = conditions: through reactive oxygen species generation and increased expression of heme oxygenase; J Cell Physiol 2006; cited from earlier work
# [1] = test system: transplanted murine mammary adenocarcinoma; conditions: Chemotherapy 1977; 23:44-49; cited from earlier work
# [2] = test system: normal and hypophysectomized animals; conditions: Science 1976, 192:372-374, cited from earlier work
# [3] = Carcinogenesis 1987; 8:1559-1562; Proc Soc Exp Biol Med 1989; 191:346-351; cited from earlier work
# [4] = test system: rats treated with parenteral homocysteine thiolactone; conditions: Kazimir et al 2002; cited from earlier work
# [5] = test system: transplanted malignant neoplasms; conditions: animals with transplanted malignant neoplasms; U.S. Pat. No. 4,255,443; cited from earlier work
# Toxicity in animal tests = conditions: 7.5 mg/70 kg/day to 300 mg/70 kg/day
# Toxicity in human trials = conditions: 7.5 mg/70 kg/day to 300 mg/70 kg/day
compound,measurement,setting,value
N-maleamide homocysteine thiolactone amide,growth of transplanted neoplasms in animals,transplanted neoplasms,suppress the growth
same,effect of encapsulation within liposomes on anti-neoplastic activity,"transplanted neoplasms; encapsulated within liposomes, Proc Soc Exp Biol Med 1985, 180:57-61",greatly enhances its anti-neoplastic activity
N-maleyl homocysteine thiolactone amide,growth of transplanted neoplasms in animals,transplanted neoplasms,suppress the growth
"CC1=C(/C=C/C(C)=C/C=C/C(C)=C/C(=O)Nc2ccc(O)cc2)C(C)(C)CCC1 [fenretinide, N-(4-hydroxyphenyl)-retinamide]",apoptosis in retinal cells,retinal cells,induces apoptosis
CCCCC/C=C/C/C=C/C/C=C/C/C=C/CCCC(=O)NC1CCSC1=O (stereo not shown) [Arachidonoyl homocysteine thiolactone amide],growth of transplanted murine mammary adenocarcinoma,[1],decrease the growth
pyridoxal homocysteine thiolactone enamine,growth of transplanted murine mammary adenocarcinoma,[1],decrease the growth
rhodium trichloride oxalyl homocysteine thiolactone amide,growth of transplanted neoplasms in animals,transplanted neoplasms,suppress the growth
N[C@@H](CCS(=O)(=O)O)C(=O)O [Homocysteic acid],"growth and release of insulin-like growth factor, IGF-1",[2]; hypophysectomized animals treated with thyroxine,"promotes growth and release of insulin-like growth factor, IGF-1"
same,growth in normal animals,[2]; normal animals,promotes growth
N-homocysteine thiolactonyl retinamido cobalamin [thioretinaco],anti-carcinogenic and anti-neoplastic activities,[3],have anti-carcinogenic and anti-neoplastic activities
same,anti-atherogenic activity,[4],have anti-atherogenic activity
N[C@H]1CCSC1=O.[O-][Cl+3]([O-])([O-])O [homocysteine thiolactone perchlorate],necrosis within malignant neoplasms,[5],increased necrosis within malignant neoplasms
CC1=C(/C=C/C(C)=C/C=C/C(C)=C/CO)C(C)(C)CCC1 [retinol],"evidence of toxicity, such as weight loss, nausea, impairment of liver function, headache, or skin lesions",Toxicity in animal tests,no evidence of toxicity
same,"evidence of toxicity, such as weight loss, nausea, impairment of liver function, headache, or skin lesions",Toxicity in human trials,no evidence of toxicity
"CC1=C(/C=C/C(C)=C/C=C/C(C)=C/C(=O)NC2CCSC2=O)C(C)(C)CCC1 (stereo not shown) [thioretinamide, N-homocysteine thiolactonyl retinamide]",anti-carcinogenic and anti-neoplastic activities,[3],have anti-carcinogenic and anti-neoplastic activities
same,anti-atherogenic activity,[4],have anti-atherogenic activity
